# Test results as given in patent publication US12065443B2, “Compounds and pharmaceutical compositions thereof for the treatment of diseases” (priority 2017, dated 2024).
# How the values were obtained:
# Test in all cases: biochemical
# SIK2 = target: T1, SIK2 (Homo sapiens, UniProt Q9H0K1); conditions: 33P radioactive SIK kinase assay, AMARA peptide, 10 μM ATP
# T1 construct: purchased ThermoFisher Scientific PV4792
# Protocol: (§1) The principle of the ^33P radioactive kinase assay consists in measuring the incorporated ^33P into the substrate AMARA peptide when phosphorylated by SIK1, SIK2 or SIK3 using [^33P]-g-ATP, which correlates with kinase activity.
# (§2) 1% DMSO and 10 μM staurosporine final concentrations are used as negative and positive controls.
# (§3) 11 μL of enzyme-substrate mixture is added on the assay plates. The reactions are started by adding 9 μL ATP mixture, consisting of non-labeled and ^33P-labeled ATP, on the assay plates.
# (§4) The reactions are stopped by adding 25 μL phosphoric acid (150 mM) to the reactions.
# (§5) After harvesting the kinase reactions, the filter plates are washed 6 times with phosphoric acid (75 mM). […] The top of the plates are sealed with TopSeal-A. Read-out is performed with a TopCount instrument (PerkinElmer Inc.).
# SIK3 = target: T2, SIK3 (Homo sapiens, UniProt Q9Y2K2)
# T2 construct: purchased SignalChem S12-11G-100
# Protocol: as §1, §2, §3, §4, §5
# SIK1 = target: T3, SIK1 (Homo sapiens, UniProt P57059); conditions: 33P radioactive SIK kinase assay, AMARA peptide, 10 μM ATP; read-out: SIK1 IC50
# T3 construct: purchased Carna Biosciences 02-131
# Protocol: as §1, §2, §3, §4, §5
# T3 sequence (P57059 whole entry): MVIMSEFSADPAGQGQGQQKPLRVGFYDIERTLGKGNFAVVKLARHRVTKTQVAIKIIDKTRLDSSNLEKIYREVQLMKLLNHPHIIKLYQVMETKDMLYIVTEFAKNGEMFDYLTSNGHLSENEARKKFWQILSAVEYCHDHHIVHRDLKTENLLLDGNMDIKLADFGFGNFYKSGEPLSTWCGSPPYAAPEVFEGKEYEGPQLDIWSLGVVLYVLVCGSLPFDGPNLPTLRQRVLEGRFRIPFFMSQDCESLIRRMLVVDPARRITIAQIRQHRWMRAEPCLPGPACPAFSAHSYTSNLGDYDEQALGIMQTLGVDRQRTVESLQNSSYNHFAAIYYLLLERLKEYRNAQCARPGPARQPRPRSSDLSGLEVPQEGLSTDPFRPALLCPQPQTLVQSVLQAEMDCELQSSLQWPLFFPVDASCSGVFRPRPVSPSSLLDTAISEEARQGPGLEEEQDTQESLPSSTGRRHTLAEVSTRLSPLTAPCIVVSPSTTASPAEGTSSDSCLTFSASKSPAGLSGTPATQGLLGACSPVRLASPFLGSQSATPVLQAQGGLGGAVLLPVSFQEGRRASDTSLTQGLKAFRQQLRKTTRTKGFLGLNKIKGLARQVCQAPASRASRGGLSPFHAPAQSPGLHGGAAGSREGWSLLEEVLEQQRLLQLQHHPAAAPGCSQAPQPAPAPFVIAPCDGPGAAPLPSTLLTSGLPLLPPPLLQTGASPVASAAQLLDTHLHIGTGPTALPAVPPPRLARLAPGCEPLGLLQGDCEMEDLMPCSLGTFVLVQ
# T2 sequence (Q9Y2K2 whole entry): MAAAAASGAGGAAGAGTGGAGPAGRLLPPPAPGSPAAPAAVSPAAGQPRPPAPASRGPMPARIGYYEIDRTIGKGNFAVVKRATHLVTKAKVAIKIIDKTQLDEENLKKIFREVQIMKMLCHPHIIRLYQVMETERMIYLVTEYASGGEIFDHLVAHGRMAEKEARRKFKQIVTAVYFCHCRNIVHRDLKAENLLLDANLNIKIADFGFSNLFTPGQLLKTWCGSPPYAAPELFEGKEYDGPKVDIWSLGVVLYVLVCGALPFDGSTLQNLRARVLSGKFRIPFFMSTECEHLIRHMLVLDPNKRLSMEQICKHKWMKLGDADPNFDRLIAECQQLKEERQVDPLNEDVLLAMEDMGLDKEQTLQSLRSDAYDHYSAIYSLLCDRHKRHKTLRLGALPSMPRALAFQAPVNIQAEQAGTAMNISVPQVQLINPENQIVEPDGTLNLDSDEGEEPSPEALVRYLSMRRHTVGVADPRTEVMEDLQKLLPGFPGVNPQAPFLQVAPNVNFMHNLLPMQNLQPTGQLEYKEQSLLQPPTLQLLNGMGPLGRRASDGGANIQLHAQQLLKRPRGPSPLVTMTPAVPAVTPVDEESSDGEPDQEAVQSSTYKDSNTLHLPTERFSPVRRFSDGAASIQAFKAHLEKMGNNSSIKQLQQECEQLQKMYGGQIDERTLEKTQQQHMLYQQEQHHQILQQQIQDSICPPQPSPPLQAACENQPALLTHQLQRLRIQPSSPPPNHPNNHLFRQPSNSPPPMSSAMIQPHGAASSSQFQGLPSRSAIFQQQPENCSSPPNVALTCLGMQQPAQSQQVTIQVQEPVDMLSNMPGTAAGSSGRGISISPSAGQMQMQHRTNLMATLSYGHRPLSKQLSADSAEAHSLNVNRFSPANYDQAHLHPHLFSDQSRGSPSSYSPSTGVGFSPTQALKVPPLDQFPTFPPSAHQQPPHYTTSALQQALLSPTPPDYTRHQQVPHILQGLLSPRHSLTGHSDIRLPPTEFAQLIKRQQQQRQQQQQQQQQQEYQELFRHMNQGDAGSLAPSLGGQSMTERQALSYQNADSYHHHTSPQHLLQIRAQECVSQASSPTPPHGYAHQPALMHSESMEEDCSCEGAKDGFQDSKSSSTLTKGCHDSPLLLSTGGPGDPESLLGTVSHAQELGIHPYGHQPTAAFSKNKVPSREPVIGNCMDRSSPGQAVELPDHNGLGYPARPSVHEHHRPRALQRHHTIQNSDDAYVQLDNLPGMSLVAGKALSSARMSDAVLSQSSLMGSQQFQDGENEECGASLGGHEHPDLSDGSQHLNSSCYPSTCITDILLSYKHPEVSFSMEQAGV
# T1 sequence (Q9H0K1 whole entry): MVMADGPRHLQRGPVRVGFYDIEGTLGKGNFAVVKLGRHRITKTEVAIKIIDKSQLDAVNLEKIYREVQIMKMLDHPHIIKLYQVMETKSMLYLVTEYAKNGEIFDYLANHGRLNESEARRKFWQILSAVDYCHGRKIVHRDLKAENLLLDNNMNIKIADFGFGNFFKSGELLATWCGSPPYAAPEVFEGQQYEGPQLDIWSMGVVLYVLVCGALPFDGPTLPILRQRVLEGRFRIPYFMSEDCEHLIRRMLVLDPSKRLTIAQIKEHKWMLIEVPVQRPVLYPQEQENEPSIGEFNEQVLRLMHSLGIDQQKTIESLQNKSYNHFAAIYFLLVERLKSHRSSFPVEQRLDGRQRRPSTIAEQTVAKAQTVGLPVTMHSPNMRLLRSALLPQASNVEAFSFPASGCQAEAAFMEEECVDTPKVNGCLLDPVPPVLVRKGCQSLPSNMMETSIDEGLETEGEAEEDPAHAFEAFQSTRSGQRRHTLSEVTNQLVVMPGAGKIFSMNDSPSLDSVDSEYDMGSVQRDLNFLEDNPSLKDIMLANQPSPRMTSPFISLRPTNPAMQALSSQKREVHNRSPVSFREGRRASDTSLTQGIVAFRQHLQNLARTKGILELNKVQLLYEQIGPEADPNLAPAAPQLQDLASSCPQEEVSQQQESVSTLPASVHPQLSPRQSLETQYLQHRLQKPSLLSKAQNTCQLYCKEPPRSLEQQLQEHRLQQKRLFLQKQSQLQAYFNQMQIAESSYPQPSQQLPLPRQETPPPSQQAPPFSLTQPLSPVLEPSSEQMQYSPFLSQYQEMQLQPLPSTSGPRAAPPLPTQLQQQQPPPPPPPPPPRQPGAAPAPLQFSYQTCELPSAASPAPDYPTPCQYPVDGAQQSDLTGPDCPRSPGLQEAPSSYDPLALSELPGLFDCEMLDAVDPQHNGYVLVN
SMILES,IC50 (SIK2) [nM],IC50 (SIK3) [nM],IC50 (SIK1) [nM]
"COc1cc(-n2cnc3cc(-c4cn[nH]c4)ccc32)cc(OC)c1C(=O)NCC(F)(F)F [compound 47, 2,6-dimethoxy-4-[5-(1H-pyrazol-4-yl)benzimidazol-1-yl]-N-(2,2,2-trifluoroethyl)benzamide]",10 to 100,0.01 to 10,10 to 100
"COc1cc(-n2cnc3cc(-c4cnn(C)c4)ccc32)cc(OC)c1C(=O)NCCC#N [compound 59, N-(2-cyanoethyl)-2,6-dimethoxy-4-[5-(1-methylpyrazol-4-yl)benzimidazol-1-yl]benzamide]",10 to 100,10 to 100,10 to 100
COCCCNC(=O)c1c(OC)cc(-n2cnc3cc(-c4cnn(C)c4)ccc32)cc1OC [compound 60],10 to 100,100 to 500,10 to 100
"COc1cc(-n2cnc3cc(-c4cnn(C)c4)ccc32)cc(OC)c1C(=O)NCc1ccccn1 [compound 62, 2,6-dimethoxy-4-[5-(1-methylpyrazol-4-yl)benzimidazol-1-yl]-N-(2-pyridylmethyl)benzamide]",100 to 500,100 to 500,100 to 500
"COc1cc(-n2cnc3cc(-c4cnn(C)c4)ccc32)cc(OC)c1C(=O)NCCCO [compound 63, N-(3-hydroxypropyl)-2,6-dimethoxy-4-[5-(1-methylpyrazol-4-yl)benzimidazol-1-yl]benzamide]",10 to 100,10 to 100,100 to 500
"COc1cc(-n2cnc3cc(-c4cnn(C)c4)ccc32)cc(OC)c1C(=O)NC1CS(=O)(=O)C1 [compound 64, N-(1,1-dioxothietan-3-yl)-2,6-dimethoxy-4-[5-(1-methylpyrazol-4-yl)benzimidazol-1-yl]benzamide]",10 to 100,10 to 100,100 to 500
"COc1cc(-n2cnc3cc(-c4cnn(C)c4)ccc32)cc(OC)c1C(=O)NCCS(C)(=O)=O [compound 65, 2,6-dimethoxy-4-[5-(1-methylpyrazol-4-yl)benzimidazol-1-yl)-N-(2-methylsulfonylethyl)benzamide]",10 to 100,10 to 100,100 to 500
"COc1cc(-n2cnc3cc(-c4cnn(C)c4)ccc32)cc(OC)c1C(=O)NC1CCS(=O)(=O)C1 (stereo not drawn) [compound 66, N-(1,1-dioxothiolan-3-yl)-2,6-dimethoxy-4-[5-(1-methylpyrazol-4-yl)benzimidazol-1-yl]benzamide]",100 to 500,100 to 500,100 to 500
"COc1cc(-n2cnc3cc(-c4cnn(C)c4)ccc32)cc(OC)c1C(=O)NC[C@@H]1COCCO1 [compound 67, N-[[(2R)-1,4-dioxan-2-yl]methyl]-2,6-dimethoxy-4-[5-(1-methylpyrazol-4-yl)benzimidazol-1-yl]benzamide]",100 to 500,100 to 500,100 to 500
"COc1cc(-n2cnc3cc(-c4cnn(C)c4)ccc32)cc(OC)c1C(=O)NC(C)(C)C(F)(F)F [compound 68, 2,6-dimethoxy-4-[5-(1-methylpyrazol-4-yl)benzimidazol-1-yl]-N-(2,2,2-trifluoro-1,1-dimethyl-ethyl)benzamide]",> 500,100 to 500,> 500
"COc1cc(-n2cnc3cc(-c4cnn(C)c4)ccc32)cc(OC)c1C(=O)NC[C@H]1COCCO1 [compound 69, N-[[(2S)-1,4-dioxan-2-yl]methyl]-2,6-dimethoxy-4-[5-(1-methylpyrazol-4-yl)benzimidazol-1-yl]benzamide]",100 to 500,100 to 500,100 to 500
"COc1cc(-n2cnc3cc(-c4cnn(C)c4)ccc32)cc(OC)c1C(=O)N(C)CC#N [compound 74, N-(cyanomethyl)-2,6-dimethoxy-N-methyl-4-[5-(1-methylpyrazol-4-yl)benzimidazol-1-yl]benzamide]",100 to 500,10 to 100,100 to 500
"COc1cc(-n2cnc3cc(-c4ccn(C)n4)ccc32)cc(OC)c1C(=O)NCC(F)(F)F [compound 89, 2,6-dimethoxy-4-[5-(1-methylpyrazol-3-yl)benzimidazol-1-yl]-N-(2,2,2-trifluoroethyl)benzamide]",10 to 100,10 to 100,10 to 100
"COc1cc(-n2cnc3cc(-c4cnn(C)c4)ccc32)cc(OC)c1C(=O)NC1CCCC1(F)F (stereo not drawn) [compound 90, N-(2,2-difluorocyclopentyl)-2,6-dimethoxy-4-[5-(1-methylpyrazol-4-yl)benzimidazol-1-yl]benzamide]",10 to 100,10 to 100,10 to 100
"COc1cc(-n2cnc3cc(-c4cnn(C)c4)ccc32)cc(OC)c1C(=O)NC(C)C(F)F (stereo not drawn) [compound 91, N-(2,2-difluoro-1-methyl-ethyl)-2,6-dimethoxy-4-[5-(1-methylpyrazol-4-yl)benzimidazol-1-yl]benzamide]",10 to 100,10 to 100,10 to 100
"COc1cc(-n2cnc3cc(-c4ccnnc4)ccc32)cc(OC)c1C(=O)NCC(F)(F)F [compound 93, 2,6-dimethoxy-4-(5-pyridazin-4-ylbenzimidazol-1-yl)-N-(2,2,2-trifluoroethyl)benzamide]",10 to 100,10 to 100,100 to 500
"COc1cc(-n2cnc3cc(-c4cncnc4)ccc32)cc(OC)c1C(=O)NCC(F)(F)F [compound 104, 2,6-dimethoxy-4-(5-pyrimidin-5-ylbenzimidazol-1-yl)-N-(2,2,2-trifluoroethyl)benzamide]",100 to 500,100 to 500,> 500
"COc1ncc(-c2ccc3c(c2)ncn3-c2cc(OC)c(C(=O)NCC(F)(F)F)c(OC)c2)cn1 [compound 105, 2,6-dimethoxy-4-[5-(2-methoxypyrimidin-5-yl)benzimidazol-1-yl]-N-(2,2,2-trifluoroethyl)benzamide]",> 500,100 to 500,> 500

# The next lines start with the values.
IC50 (SIK2) [nM],IC50 (SIK3) [nM],IC50 (SIK1) [nM],SMILES
100 to 500,> 500,> 500,COc1cc(-n2cnc3cc(-c4cnn(C)c4)ccc32)cc(OC)c1C(=O)NCc1ccn(C)n1 [compound 61]
10 to 100,100 to 500,100 to 500,"COc1cc(-n2cnc3cc(-c4cnn(C)c4)ccc32)cc(OC)c1C(=O)NCc1nccn1C [compound 71, 2,6-dimethoxy-N-[(1-methylimidazol-2-yl)methyl]-4-[5-(1-methylpyrazol-4-yl)benzimidazol-1-yl]benzamide]"
10 to 100,10 to 100,10 to 100,"COc1cc(-n2cnc3cc(-c4cnn(C)c4)ccc32)cc(OC)c1C(=O)Nc1ccon1 [compound 72, N-isoxazol-3-yl-2,6-dimethoxy-4-[5-(1-methylpyrazol-4-yl)benzimidazol-1-yl]benzamide]"
100 to 500,100 to 500,> 500,"COc1cc(-n2cnc3cc(-c4cnn(C)c4)ccc32)cc(OC)c1C(=O)Nc1ccnn1C [compound 73, 2,6-dimethoxy-N-(2-methylpyrazol-3-yl)-4-[5-(1-methylpyrazol-4-yl)benzimidazol-1-yl]benzamide]"
0.01 to 10,0.01 to 10,10 to 100,COc1cc(-n2cnc3cc(-c4cnn(C)c4)ccc32)cc(OC)c1C(=O)NCC#N [compound 75]
10 to 100,10 to 100,10 to 100,"COc1cc(-n2cnc3cc(-c4cnn(C)c4)ccc32)cc(OC)c1C(=O)NC1CCC1 [compound 77, N-cyclobutyl-2,6-dimethoxy-4-[5-(1-methylpyrazol-4-yl)benzimidazol-1-yl]benzamide]"
0.01 to 10,0.01 to 10,10 to 100,"COc1cc(-n2cnc3cc(-c4cnn(C)c4)ccc32)cc(OC)c1C(=O)NCCF [compound 79, N-(2-fluoroethyl)-2,6-dimethoxy-4-[5-(1-methylpyrazol-4-yl)benzimidazol-1-yl]benzamide]"
100 to 500,100 to 500,100 to 500,"COc1cc(-n2cnc3cc(-c4cnn(C)c4)ccc32)cc(OC)c1C(=O)Nc1ccn(C)n1 [compound 81, 2,6-dimethoxy-N-(1-methylpyrazol-3-yl)-4-[5-(1-methylpyrazol-4-yl)benzimidazol-1-yl]benzamide]"
100 to 500,100 to 500,100 to 500,"COc1cc(-n2cnc3cc(-c4cnn(C)c4)ccc32)cc(OC)c1C(=O)Nc1cn(C)cn1 [compound 82, 2,6-dimethoxy-N-(1-methylimidazol-4-yl)-4-[5-(1-methylpyrazol-4-yl)benzimidazol-1-yl]benzamide]"
100 to 500,100 to 500,100 to 500,"COc1cc(-n2cnc3cc(-c4cnn(C)c4)ccc32)cc(OC)c1C(=O)Nc1cnn(C)c1 [compound 83, 2,6-dimethoxy-N-(1-methylpyrazol-4-yl)-4-[5-(1-methylpyrazol-4-yl)benzimidazol-1-yl]benzamide]"
10 to 100,10 to 100,10 to 100,"COc1cc(-n2cnc3cc(-c4cnn(C)c4)ccc32)cc(OC)c1C(=O)NC(C)C#N (stereo not drawn) [compound 87, N-(1-cyanoethyl)-2,6-dimethoxy-4-[5-(1-methylpyrazol-4-yl)benzimidazol-1-yl]benzamide]"
10 to 100,10 to 100,10 to 100,"COc1cc(-n2cnc3cc(-c4cnn(C)c4)ccc32)cc(OC)c1C(=O)NC1COC1 [compound 92, 2,6-dimethoxy-4-[5-(1-methylpyrazol-4-yl)benzimidazol-1-yl]-N-(oxetan-3-yl)benzamide]"
